Results from US20180228780A1, “3-(1H-PYRROLO[2,3-C]PYRIDIN-2-YL)-1H-INDAZOLES AND THERAPEUTIC USES THEREOF” (Samumed, LLC, priority 2015, published 2018).

Columns and labels:
Assay type in all cases: cell-based
[1] = system: primary human mesenchymal stem cells (hMSCs); test: Induction of chondrogenesis in hMSCs (nodule imaging, Rhodamine B / Nile Red); conditions: 6 days; for EC50: concentration required to induce 50% levels of chondrogenesis vs TGF-β3, read-out: Conc (nM) of 50% TGF-β3 activity; for Emax: relative to TGF-β3 (10 ng/mL) positive control, read-out: Max. Activity as % TGF-β3 activity
Source text: Representative compounds were screened using primary human mesenchymal stem cells (hMSCs) to determine their ability to induce chondrogenesis (process by which cartilage is developed).
Primary human mesenchymal stem cells (hMSCs) were purchased from Lonza (Walkersville, Md.) and expanded in Mesenchymal Stem Cell Growth Media (Lonza). Cells between passage 3 and 6 were used for the experiments.
Area of nodules in each well was normalized to the average of 3 DMSO treated wells on the same plate using Excel (Microsoft Inc.). The normalized averages (fold change over DMSO) of 2 or 3 replicate wells for each compound concentration were calculated. Due to solubility limitations of some of the compounds, curve fitting was incomplete leading to inaccurate EC50 determinations.
Using TGF-β3 as a positive control, the concentration of representative compounds required to induce 50% levels of chondrogenesis is reported. In addition, the maximum activity of each compound and the respective dose that each compound reached maximum chondrogenesis activity is reported.

[2] = system: Primary human fibroblasts derived from IPF patients (LL29 cells); test: Inhibition of the fibrotic process: αSMA staining in TGF-β1-treated LL29 fibroblasts; conditions: Fibroblast; for EC50: 96 h, LL29 cells, TGF-β1 20 ng/mL, 4 days, % αSMA-positive cells; for inhibition at 10 µM: read-out: percent inhibition at 10 μM
How it was run: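 LL29 IPF-patient lung fibroblasts plated in F12 with 1% FBS, treated with TGF-β1 plus compound; TGF-β1/DMSO wells served as controls. After 4 days incubation, SYTOX green (1 μM final) added for 30 min at room temperature; αSMA staining used as fibrosis read-out.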

IL-6 (THP-1 cells) = test: IL-6 inhibition in THP-1 monocytes (HTRF); conditions: Homo sapiens; for inhibition at 10 µM: THP-1, read-out: percentage in parentheses printed under EC50 >10; for EC50: IL-6 inhibition, THP-1 cells, HTRF, 10-point dose-response starting from 10 μM
How it was run: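 THP-1 cells serum-reduced (1% FBS, 24 h), plated 5000/well, stimulated with 500 ng/mL […] after 2 h and incubated a further 22 h at 37 °C. Secreted IL-6 quantified by HTRF (665/620 nm ratio), normalized to DMSO; EC50 from four-parameter fit, duplicates.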

SW480 colon cancer cells = test: Cell viability assay (CellTiter-Blue) in SW480 colon cancer cells; conditions: Homo sapiens; for EC50: 96 h, SW480 cell viability, four days incubation; for inhibition at 10 µM: SW480, read-out: percent inhibition at 10 μM
How it was run: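 Fluorescence from resazurin reduced to resorufin by metabolically active cells was the read-out, taken after ~3 h with CellTiter-Blue.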

[3] = system: Wnt activity (Sp5-Luc reporter, SW480 colon carcinoma cells); test: Screening assay for Wnt activity: Sp5-Luc reporter gene assay in SW480 cells; conditions: Homo sapiens; for EC50: SW480 Sp5-Luc reporter, overnight incubation; for inhibition at 10 µM: SW480, read-out: percent inhibition at 10 μM
How it was run: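 SW480 colon carcinoma cells stably carrying Sp5 promoter (eight TCF/LEF sites)-driven firefly luciferase, plated at 4,000 cells/well in 1% FBS medium and incubated overnight at 37° C. Luminescence normalised to DMSO-only cells; EC50 from four-parameter variable-slope nonlinear regression.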

Row | SMILES | EC50 [1] | Emax [1] | EC50 [2] | inhibition at 10 µM [2] | inhibition at 10 µM (IL-6 (THP-1 cells)) | EC50 (IL-6 (THP-1 cells)) | EC50 (SW480 colon cancer cells) | inhibition at 10 µM (SW480 colon cancer cells) | EC50 [3] | inhibition at 10 µM [3]
1 | CC(C)CC(=O)Nc1cncc(-c2ccc3[nH]nc(-c4cc5c(-c6ccncc6)cncc5[nH]4)c3c2)c1 [Compound 114] | 30 nM | 70% | > 10000 nM | 47% | 15.9% | > 10000 nM | > 10000 nM | 24.8% | 875 nM | 
2 | CN(C)Cc1cncc(-c2ccc3[nH]nc(-c4cc5c(-c6ccncc6)cncc5[nH]4)c3c2)c1 [Compound 125] |  | 18% | 2440 nM |  |  | 1160 nM | 2170 nM |  | 1060 nM | 
3 | c1cc(-c2cncc3[nH]c(-c4n[nH]c5ccc(-c6cncc(CN7CCCC7)c6)cc45)cc23)ccn1 [Compound 126, 3-(4-(Pyridin-4-yl)-1H-pyrrolo[2,3-c]pyridin-2-yl)-5-(5-(pyrrolidin-1-ylmethyl)pyridin-3-yl)-1H-indazole] |  | 48% | 1490 nM |  |  | 2160 nM | 2310 nM |  | 3390 nM | 
4 | CCCC(=O)Nc1cncc(-c2ccc3[nH]nc(-c4cc5c(-c6ccncc6)cncc5[nH]4)c3c2)c1 [Compound 129, N-(5-(3-(4-(Pyridin-4-yl)-1H-pyrrolo[2,3-c]pyridin-2-yl)-1H-indazol-5-yl)pyridin-3-yl)butyramide] | 100 nM | 124% | 6200 nM |  |  | 1020 nM | > 10000 nM | 15.5% | > 10000 nM | 25.5%
5 | O=C(Nc1cncc(-c2ccc3[nH]nc(-c4cc5c(-c6ccncc6)cncc5[nH]4)c3c2)c1)C1CC1 [Compound 132, N-(5-(3-(4-(Pyridin-4-yl)-1H-pyrrolo[2,3-c]pyridin-2-yl)-1H-indazol-5-yl)pyridin-3-yl)cyclopropanecarboxamide] |  | 37% | > 10000 nM | 35.6% |  | 765 nM | > 10000 nM | 20.6% | 395 nM | 
6 | CC(C)CC(=O)Nc1cncc(-c2ccc3[nH]nc(-c4cc5c(N6CCCCC6)cncc5[nH]4)c3c2)c1 [Compound 170] | 2700 nM | 113% | 550 nM |  |  | 46 nM | 279 nM |  | 377 nM | 
7 | c1ncc(-c2ccc3[nH]nc(-c4cc5c(N6CCCCC6)cncc5[nH]4)c3c2)cc1CN1CCCC1 [Compound 182, 3-(4-(Piperidin-1-yl)-1H-pyrrolo[2,3-c]pyridin-2-yl)-5-(5-(pyrrolidin-1-ylmethyl)pyridin-3-yl)-1H-indazole] |  | 25% | 2420 nM |  |  | 503 nM | 4340 nM |  | 1840 nM | 
8 | c1ncc(-c2ccc3[nH]nc(-c4cc5c(N6CCCCC6)cncc5[nH]4)c3c2)cn1 [Compound 195, 3-(4-(Piperidin-1-yl)-1H-pyrrolo[2,3-c]pyridin-2-yl)-5-(pyrimidin-5-yl)-1H-indazole] |  | 38% | 1080 nM |  |  | 5610 nM | 2900 nM |  | 1760 nM | 
9 | CN1CCN(c2cncc3[nH]c(-c4n[nH]c5ccc(-c6cncc(N)c6)cc45)cc23)CC1 [Compound 227, 5-(3-(4-(4-Methylpiperazin-1-yl)-1H-pyrrolo[2,3-c]pyridin-2-yl)-1H-indazol-5-yl)pyridin-3-amine] | 30 nM | 51% | 5310 nM |  | 48.5% | > 10000 nM | > 10000 nM | 37.2% | 8250 nM | 
10 | CN1CCN(c2cncc3[nH]c(-c4n[nH]c5ccc(-c6cccnc6)cc45)cc23)CC1 [Compound 228, 3-(4-(4-Methylpiperazin-1-yl)-1H-pyrrolo[2,3-c]pyridin-2-yl)-5-(pyridin-3-yl)-1H-indazole] |  | 20% | 774 nM |  |  | 1370 nM | 4020 nM |  | 4060 nM | 
11 | CN1CCN(c2cncc3[nH]c(-c4n[nH]c5ccc(-c6cncc(NC(=O)CC(C)(C)C)c6)cc45)cc23)CC1 [Compound 240, 3,3-Dimethyl-N-(5-(3-(4-(4-methylpiperazin-1-yl)-1H-pyrrolo[2,3-c]pyridin-2-yl)-1H-indazol-5-yl)pyridin-3-yl)butanamide] |  | 31% | 2650 nM |  |  | 500 nM | 4450 nM |  | 3480 nM | 
12 | CN1CCN(c2cncc3[nH]c(-c4n[nH]c5ccc(-c6cncc(CNCc7ccccc7)c6)cc45)cc23)CC1 [Compound 248] | 30 nM | 101% | 1160 nM |  |  | 3590 nM | 3630 nM |  | 3340 nM | 
13 | Cc1ccncc1-c1ccc2[nH]nc(-c3cc4ccncc4[nH]3)c2c1 [Compound 257, 5-(4-Methylpyridin-3-yl)-3-(1H-pyrrolo[2,3-c]pyridin-2-yl)-1H-indazole] | 300 nM | 161% | 484 nM |  |  | 26 nM | 109 nM |  | 191 nM | 
14 | CCCC(=O)Nc1cncc(-c2ccc3[nH]nc(-c4cc5ccncc5[nH]4)c3c2)c1 [Compound 269, N-(5-(3-(1H-Pyrrolo[2,3-c]pyridin-2-yl)-1H-indazol-5-yl)pyridin-3-yl) butyramide] | 900 nM | 152% | 410 nM |  |  | 22 nM | 986 nM |  | 452 nM | 
15 | c1cc2cc(-c3n[nH]c4ccc(-c5cncc(CNCC6CCCC6)c5)cc34)[nH]c2cn1 [Compound 277, 1-(5-(3-(1H-Pyrrolo[2,3-c]pyridin-2-yl)-1H-indazol-5-yl)pyridin-3-yl)-N-(cyclopentylmethyl)methanamine] |  | 49% | 1390 nM |  |  | 31 nM | 1390 nM |  | 1460 nM | 
16 | CN(C)c1cncc(-c2ccc3[nH]nc(-c4cc5c(-c6ccoc6)cncc5[nH]4)c3c2)c1 [Compound 315, 5-(3-(4-(Furan-3-yl)-1H-pyrrolo[2,3-c]pyridin-2-yl)-1H-indazol-5-yl)-N,N-dimethylpyridin-3-amine] | 300 nM | 69% | 1510 nM |  |  | 505 nM | 559 nM |  | 1450 nM | 
17 | CCCCC(=O)Nc1cncc(-c2ccc3[nH]nc(-c4cc5c(-c6ccoc6)cncc5[nH]4)c3c2)c1 [Compound 327] | 30 nM | 122% | 1340 nM |  |  | 689 nM | 298 nM |  | 915 nM | 
18 | O=C(Nc1cncc(-c2ccc3[nH]nc(-c4cc5c(-c6cccs6)cncc5[nH]4)c3c2)c1)C1CC1 [Compound 356, N-(5-(3-(4-(Thiophen-2-yl)-1H-pyrrolo[2,3-c]pyridin-2-yl)-1H-indazol-5-yl)pyridin-3-yl)cyclopropanecarboxamide] | 10 nM | 156% | 83 nM |  |  | 14 nM | 117 nM |  | 86 nM | 
19 | c1ccc(CNCc2cncc(-c3ccc4[nH]nc(-c5cc6c(-c7cccs7)cncc6[nH]5)c4c3)c2)cc1 [Compound 360] | 10 nM | 57% | 187 nM |  |  | 57 nM | 835 nM |  | 578 nM | 
20 | CCC(=O)Nc1cncc(-c2ccc3[nH]nc(-c4cc5c(-c6cc(F)cc(CNS(C)(=O)=O)c6)cncc5[nH]4)c3c2)c1 [Compound 477, N-(5-(3-(4-(3-Fluoro-5-(methylsulfonamidomethyl)phenyl)-1H-pyrrolo[2,3-c]pyridin-2-yl)-1H-indazol-5-yl)pyridin-3-yl)propionamide] |  | 29% | 1640 nM |  |  | 56 nM | 901 nM |  | 244 nM | 
21 | CCNCc1cncc(-c2ccc3[nH]nc(-c4cc5c(-c6cc(F)cc(CNS(C)(=O)=O)c6)cncc5[nH]4)c3c2)c1 [Compound 482, N-(3-(2-(5-(5-((Ethylamino)methyl)pyridin-3-yl)-1H-indazol-3-yl)-1H-pyrrolo[2,3-c]pyridin-4-yl)-5-fluorobenzyl)methanesulfonamide] | 100 nM | 58% | > 10000 nM | 17.1% |  | 187 nM | > 10000 nM | 24.3% | > 10000 nM | 29.8%
